# Source: ChEMBL document CHEMBL5346973 (J Med Chem, 2023)
# Where a SMILES comes first, the peptide text is derived from it.
# Tests used:
# [1] = target: Nicotinic acetylcholine receptor alpha9/alpha10 (Rattus norvegicus, UniProt P43144+Q9JLB5); assay: Antagonist activity at rat alpha9alpha10 nACh receptor expressed in Xenopus oocyte assessed as inhibition of acetylcholine-induced response at -70 mV holding potential by voltage-clamp based electrophysiological assay; type: cell-based
# [2] = target: Neuronal acetylcholine receptor subunit alpha-7 (Rattus norvegicus, UniProt Q05941); assay: Antagonist activity at rat alpha7 nACh receptor expressed in Xenopus oocyte assessed as inhibition of acetylcholine-induced response at -70 mV holding potential by voltage-clamp based electrophysiological assay; type: cell-based
# Sequence of Neuronal acetylcholine receptor subunit alpha-7 (Q05941 whole entry): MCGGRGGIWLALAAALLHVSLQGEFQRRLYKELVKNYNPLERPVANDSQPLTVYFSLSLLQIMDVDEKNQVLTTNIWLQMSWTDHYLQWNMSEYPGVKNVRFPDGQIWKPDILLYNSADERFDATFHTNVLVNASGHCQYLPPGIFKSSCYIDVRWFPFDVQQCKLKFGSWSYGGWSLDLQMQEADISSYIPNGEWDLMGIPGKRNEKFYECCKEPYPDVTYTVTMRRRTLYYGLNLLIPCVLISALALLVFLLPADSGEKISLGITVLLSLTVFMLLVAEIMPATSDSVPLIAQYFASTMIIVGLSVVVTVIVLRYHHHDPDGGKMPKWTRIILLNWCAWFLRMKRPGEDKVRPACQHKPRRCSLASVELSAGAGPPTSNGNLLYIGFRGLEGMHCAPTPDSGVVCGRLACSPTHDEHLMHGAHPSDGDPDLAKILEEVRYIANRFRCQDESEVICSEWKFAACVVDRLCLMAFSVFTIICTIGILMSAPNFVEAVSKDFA
# Sequence of Nicotinic acetylcholine receptor alpha9/alpha10 (P43144 whole entry): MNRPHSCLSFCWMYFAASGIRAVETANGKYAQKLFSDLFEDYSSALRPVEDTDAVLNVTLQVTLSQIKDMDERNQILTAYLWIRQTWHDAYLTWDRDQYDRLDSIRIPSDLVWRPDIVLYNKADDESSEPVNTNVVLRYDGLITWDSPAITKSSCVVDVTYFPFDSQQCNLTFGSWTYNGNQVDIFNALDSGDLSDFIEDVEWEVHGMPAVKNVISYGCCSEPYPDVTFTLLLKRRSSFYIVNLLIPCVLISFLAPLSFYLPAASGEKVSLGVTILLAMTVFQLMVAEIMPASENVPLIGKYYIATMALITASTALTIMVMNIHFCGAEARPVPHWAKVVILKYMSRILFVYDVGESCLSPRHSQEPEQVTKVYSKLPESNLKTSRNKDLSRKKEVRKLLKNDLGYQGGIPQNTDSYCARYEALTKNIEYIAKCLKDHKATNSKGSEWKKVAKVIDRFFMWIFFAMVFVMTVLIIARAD
# Sequence of Nicotinic acetylcholine receptor alpha9/alpha10 (Q9JLB5 whole entry): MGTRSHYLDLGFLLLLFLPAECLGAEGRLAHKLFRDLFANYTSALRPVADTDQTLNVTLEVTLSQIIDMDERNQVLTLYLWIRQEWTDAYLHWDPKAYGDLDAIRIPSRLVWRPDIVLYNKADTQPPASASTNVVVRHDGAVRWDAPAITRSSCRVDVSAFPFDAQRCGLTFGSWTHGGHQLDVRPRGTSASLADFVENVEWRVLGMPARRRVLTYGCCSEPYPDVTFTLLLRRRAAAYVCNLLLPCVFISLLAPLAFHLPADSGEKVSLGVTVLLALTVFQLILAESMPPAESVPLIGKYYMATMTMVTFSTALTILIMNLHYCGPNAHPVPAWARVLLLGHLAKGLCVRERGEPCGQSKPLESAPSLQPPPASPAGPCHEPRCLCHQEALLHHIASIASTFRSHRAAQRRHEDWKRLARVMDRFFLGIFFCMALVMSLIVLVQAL
Structure (SMILES),IC50 [1] [nM],IC50 [2] [µM]
CC[C@H](C)[C@@H]1NC(=O)[C@H](CCCNC(=N)N)NC(=O)[C@H](CCCNC(=N)N)NC(=O)[C@@H](NC(=O)[C@H](C)NC(=O)[C@H](CCCNC(=N)N)NC(=O)[C@H](CCCNC(=N)N)NC(=O)[C@H](CCCNC(=N)N)NC(=O)[C@H](CCCNC(=N)N)NC(=O)[C@H](CC(=O)O)NC(=O)[C@H](Cc2ccc(O)cc2)NC(=O)[C@@H]2CCCN2C(=O)[C@H](CO)NC(=O)[C@H](CCCNC(=N)N)NC(=O)[C@@H]2CSSC[C@H](NC(=O)[C@@H](N)[C@@H](C)O)C(=O)N[C@@H](CCCNC(=N)N)C(=O)N[C@@H](CO)C(=O)N[C@@H](CO)C(=O)NCC(=O)N[C@@H](CCCNC(=N)N)C(=O)N[C@@H](Cc3ccc(O)cc3)C(=O)N2)CSSC[C@@H](C(=O)N[C@H](C(=O)O)C(C)C)NC(=O)[C@H](C)NC(=O)[C@H](CC(=O)O)NC(=O)[C@H]([C@@H](C)O)NC1=O,16,4.62
CC[C@H](C)[C@@H]1NC(=O)[C@H](CCCNC(=N)N)NC(=O)[C@H](CCCNC(=N)N)NC(=O)[C@@H]2CSSC[C@H](NC(=O)[C@H](Cc3ccc(O)cc3)NC(=O)[C@H](CCCNC(=N)N)NC(=O)CNC(=O)[C@H](CO)NC(=O)[C@H](CO)NC(=O)[C@H](CCCNC(=N)N)NC(=O)[C@@H](NC(=O)[C@@H](N)[C@@H](C)O)CSSC[C@@H](C(=O)N[C@H](C(=O)O)C(C)C)NC(=O)[C@H](C)NC(=O)[C@H](CC(=O)O)NC(=O)[C@H]([C@@H](C)O)NC1=O)C(=O)N[C@@H](CCCNC(=N)N)C(=O)N[C@@H](CO)C(=O)N1CCC[C@H]1C(=O)N[C@@H](Cc1ccc(O)cc1)C(=O)N[C@@H](CC(=O)O)C(=O)N[C@@H](CCCNC(=N)N)C(=O)N[C@@H](CCCNC(=N)N)C(=O)N[C@@H](CCCNC(=N)N)C(=O)N[C@@H](C)C(=O)N[C@@H](Cc1ccc(O)cc1)C(=O)N2,27,> 10
CC[C@H](C)[C@@H]1NC(=O)[C@H](CCCNC(=N)N)NC(=O)[C@H](C)NC(=O)[C@@H](NC(=O)[C@H](Cc2ccc(O)cc2)NC(=O)[C@H](CCCNC(=N)N)NC(=O)[C@H](CCCNC(=N)N)NC(=O)[C@H](CCCNC(=N)N)NC(=O)[C@H](CCCNC(=N)N)NC(=O)[C@H](CC(=O)O)NC(=O)[C@H](Cc2ccc(O)cc2)NC(=O)[C@@H]2CCCN2C(=O)[C@H](CO)NC(=O)[C@H](CCCNC(=N)N)NC(=O)[C@@H]2CSSC[C@H](NC(=O)[C@@H](N)[C@@H](C)O)C(=O)N[C@@H](CCCNC(=N)N)C(=O)N[C@@H](CO)C(=O)N[C@@H](CO)C(=O)NCC(=O)N[C@@H](CCCNC(=N)N)C(=O)N[C@@H](Cc3ccc(O)cc3)C(=O)N2)CSSC[C@@H](C(=O)N[C@H](C(=O)O)C(C)C)NC(=O)[C@H](C)NC(=O)[C@H](CC(=O)O)NC(=O)[C@H]([C@@H](C)O)NC1=O,14,5.61
CC[C@H](C)[C@@H]1NC(=O)[C@H](CCCNC(=N)N)NC(=O)[C@H](CCCNC(=N)N)NC(=O)[C@@H](NC(=O)[C@H](Cc2ccc(O)cc2)NC(=O)[C@H](CCCNC(=N)N)NC(=O)[C@H](CCCNC(=N)N)NC(=O)[C@H](CCCNC(=N)N)NC(=O)[C@H](CCCNC(=N)N)NC(=O)[C@H](CC(=O)O)NC(=O)[C@H](Cc2ccc(O)cc2)NC(=O)[C@@H]2CCCN2C(=O)[C@H](CO)NC(=O)[C@H](CCCNC(=N)N)NC(=O)[C@@H]2CSSC[C@H](NC(=O)[C@H](C)N)C(=O)N[C@@H](CCCNC(=N)N)C(=O)N[C@@H](CO)C(=O)N[C@@H](CO)C(=O)NCC(=O)N[C@@H](CCCNC(=N)N)C(=O)N[C@@H](Cc3ccc(O)cc3)C(=O)N2)CSSC[C@@H](C(=O)N[C@H](C(=O)O)C(C)C)NC(=O)[C@H](C)NC(=O)[C@H](CC(=O)O)NC(=O)[C@H]([C@@H](C)O)NC1=O,8.1,1.08
"CC[C@H](C)[C@@H]1NC(=O)[C@H](CCCNC(=N)N)NC(=O)[C@H](CCCNC(=N)N)NC(=O)[C@@H]2CSSC[C@H](NC(=O)[C@H](C)NC(=O)[C@H](CCCNC(=N)N)NC(=O)CNC(=O)[C@H](CO)NC(=O)[C@H](CO)NC(=O)[C@H](CCCNC(=N)N)NC(=O)[C@@H](NC(=O)[C@@H](N)[C@@H](C)O)CSSC[C@@H](C(=O)N[C@H](C(=O)O)C(C)C)NC(=O)[C@H](C)NC(=O)[C@H](CC(=O)O)NC(=O)[C@H]([C@@H](C)O)NC1=O)C(=O)N[C@@H](CCCNC(=N)N)C(=O)N[C@@H](CO)C(=O)N1CCC[C@H]1C(=O)N[C@@H](Cc1ccc(O)cc1)C(=O)N[C@@H](CC(=O)O)C(=O)N[C@@H](CCCNC(=N)N)C(=O)N[C@@H](CCCNC(=N)N)C(=O)N[C@@H](CCCNC(=N)N)C(=O)N[C@@H](CCCNC(=N)N)C(=O)N[C@@H](Cc1ccc(O)cc1)C(=O)N2 (HELM PEPTIDE1{T.C.R.S.S.G.R.A.C.R.S.P.Y.D.R.R.R.R.Y.C.R.R.I.T.D.A.C.V}$PEPTIDE1,PEPTIDE1,2:R3-27:R3|PEPTIDE1,PEPTIDE1,9:R3-20:R3$$$V2.0)",120,7.33
CC[C@H](C)[C@@H]1NC(=O)[C@H](CCCNC(=N)N)NC(=O)[C@H](CCCNC(=N)N)NC(=O)[C@@H](NC(=O)[C@H](Cc2ccc(O)cc2)NC(=O)[C@H](CCCNC(=N)N)NC(=O)[C@H](CCCNC(=N)N)NC(=O)[C@H](CCCNC(=N)N)NC(=O)[C@H](CCCNC(=N)N)NC(=O)[C@H](CC(=O)O)NC(=O)[C@H](Cc2ccc(O)cc2)NC(=O)[C@@H]2CCCN2C(=O)[C@@H](CO)NC(=O)[C@H](C)NC(=O)[C@@H]2CSSC[C@H](NC(=O)[C@@H](N)[C@@H](C)O)C(=O)N[C@@H](CCCNC(=N)N)C(=O)N[C@@H](CO)C(=O)N[C@@H](CO)C(=O)NCC(=O)N[C@@H](CCCNC(=N)N)C(=O)N[C@@H](Cc3ccc(O)cc3)C(=O)N2)CSSC[C@@H](C(=O)N[C@H](C(=O)O)C(C)C)NC(=O)[C@H](C)NC(=O)[C@H](CC(=O)O)NC(=O)[C@H]([C@@H](C)O)NC1=O,71,1.91
"CC[C@H](C)[C@@H]1NC(=O)[C@H](CCCNC(=N)N)NC(=O)[C@H](CCCNC(=N)N)NC(=O)[C@@H]2CSSC[C@H](NC(=O)[C@H](Cc3ccc(O)cc3)NC(=O)[C@H](CCCNC(=N)N)NC(=O)CNC(=O)[C@H](CO)NC(=O)[C@H](CO)NC(=O)[C@H](CCCNC(=N)N)NC(=O)[C@@H](NC(=O)[C@@H](N)[C@@H](C)O)CSSC[C@@H](C(=O)N[C@H](C(=O)O)C(C)C)NC(=O)[C@H](C)NC(=O)[C@H](CC(=O)O)NC(=O)[C@H]([C@@H](C)O)NC1=O)C(=O)N[C@@H](CCCNC(=N)N)C(=O)N[C@@H](C)C(=O)N1CCC[C@H]1C(=O)N[C@@H](Cc1ccc(O)cc1)C(=O)N[C@@H](CC(=O)O)C(=O)N[C@@H](CCCNC(=N)N)C(=O)N[C@@H](CCCNC(=N)N)C(=O)N[C@@H](CCCNC(=N)N)C(=O)N[C@@H](CCCNC(=N)N)C(=O)N[C@@H](Cc1ccc(O)cc1)C(=O)N2 (HELM PEPTIDE1{T.C.R.S.S.G.R.Y.C.R.A.P.Y.D.R.R.R.R.Y.C.R.R.I.T.D.A.C.V}$PEPTIDE1,PEPTIDE1,2:R3-27:R3|PEPTIDE1,PEPTIDE1,9:R3-20:R3$$$V2.0)",10,5.6
"CC[C@H](C)[C@@H]1NC(=O)[C@H](CCCNC(=N)N)NC(=O)[C@H](CCCNC(=N)N)NC(=O)[C@@H]2CSSC[C@H](NC(=O)[C@H](Cc3ccc(O)cc3)NC(=O)[C@H](CCCNC(=N)N)NC(=O)CNC(=O)[C@H](CO)NC(=O)[C@H](CO)NC(=O)[C@H](CCCNC(=N)N)NC(=O)[C@@H](NC(=O)[C@@H](N)[C@@H](C)O)CSSC[C@@H](C(=O)N[C@H](C(=O)O)C(C)C)NC(=O)[C@H](C)NC(=O)[C@H](CC(=O)O)NC(=O)[C@H]([C@@H](C)O)NC1=O)C(=O)N[C@@H](CCCNC(=N)N)C(=O)N[C@@H](CO)C(=O)N1CCC[C@H]1C(=O)N[C@@H](Cc1ccc(O)cc1)C(=O)N[C@@H](C)C(=O)N[C@@H](CCCNC(=N)N)C(=O)N[C@@H](CCCNC(=N)N)C(=O)N[C@@H](CCCNC(=N)N)C(=O)N[C@@H](CCCNC(=N)N)C(=O)N[C@@H](Cc1ccc(O)cc1)C(=O)N2 (HELM PEPTIDE1{T.C.R.S.S.G.R.Y.C.R.S.P.Y.A.R.R.R.R.Y.C.R.R.I.T.D.A.C.V}$PEPTIDE1,PEPTIDE1,2:R3-27:R3|PEPTIDE1,PEPTIDE1,9:R3-20:R3$$$V2.0)",4.7,7.64
CC[C@H](C)[C@@H]1NC(=O)[C@H](CCCNC(=N)N)NC(=O)[C@H](CCCNC(=N)N)NC(=O)[C@@H](NC(=O)[C@H](Cc2ccc(O)cc2)NC(=O)[C@H](CCCNC(=N)N)NC(=O)[C@H](CCCNC(=N)N)NC(=O)[C@H](CCCNC(=N)N)NC(=O)[C@H](CCCNC(=N)N)NC(=O)[C@H](CC(=O)O)NC(=O)[C@H](Cc2ccc(O)cc2)NC(=O)[C@@H]2CCCN2C(=O)[C@H](CO)NC(=O)[C@H](CCCNC(=N)N)NC(=O)[C@@H]2CSSC[C@H](NC(=O)[C@@H](N)[C@@H](C)O)C(=O)N[C@@H](CCCNC(=N)N)C(=O)N[C@@H](CO)C(=O)N[C@@H](CO)C(=O)NCC(=O)N[C@@H](CCCNC(=N)N)C(=O)N[C@@H](Cc3ccc(O)cc3)C(=O)N2)CSSC[C@@H](C(=O)N[C@H](C(=O)O)C(C)C)NC(=O)[C@H](C)NC(=O)[C@@H](C)NC(=O)[C@H]([C@@H](C)O)NC1=O,13,6.69
CC[C@H](C)[C@@H]1NC(=O)[C@H](CCCNC(=N)N)NC(=O)[C@H](CCCNC(=N)N)NC(=O)[C@@H](NC(=O)[C@H](Cc2ccc(O)cc2)NC(=O)[C@H](CCCNC(=N)N)NC(=O)[C@H](CCCNC(=N)N)NC(=O)[C@H](CCCNC(=N)N)NC(=O)[C@H](CCCNC(=N)N)NC(=O)[C@H](CC(=O)O)NC(=O)[C@H](Cc2ccc(O)cc2)NC(=O)[C@@H]2CCCN2C(=O)[C@H](CO)NC(=O)[C@H](CCCNC(=N)N)NC(=O)[C@@H]2CSSC[C@H](NC(=O)[C@@H](N)[C@@H](C)O)C(=O)N[C@@H](CCCNC(=N)N)C(=O)N[C@@H](CO)C(=O)N[C@@H](CO)C(=O)NCC(=O)N[C@@H](CCCNC(=N)N)C(=O)N[C@@H](Cc3ccc(O)cc3)C(=O)N2)CSSC[C@@H](C(=O)N[C@@H](C)C(=O)O)NC(=O)[C@H](C)NC(=O)[C@H](CC(=O)O)NC(=O)[C@H]([C@@H](C)O)NC1=O,15,0.76
